Test results published in patent US5942494A, “Stimulation of gene expression and synthesis of heat shock protein 72/73 (HSP 70)” (The Trustees of Columbia University in the City of New York, priority 1996, dated 1999).
Square brackets hold non-standard residues; d marks the D form. Peptide text beside a SMILES is read from it. Nle = CCCC[C@H](N)C(=O)O

Key:
Hsp27 = experiment: Immunoprecipitation of Hsp27 from radiolabeled HepG2 cells; format: cell-based, human; conditions: HepG2, ALLN 4 hours
Procedure: FIGS. 7A-7B: Effects of ALLN on the biosynthesis of other members of Hsp family and related proteins. HepG2 cells were pre-treated and radiolabeled with or without ALLN for 4 hours as described in FIG. 1. Cell lysates were used for SDS-PAGE (A), or for immunoprecipitation with anti-Hsp25, -Hsp27, -Hsp60, -Hsp70, -Hsp86, -Hsp90, -Hsp104, -Bip, or -albumin antibodies respectively (1 μg/ml) (B). Because the anti-Hsp25, -Hsp27, -Hsp60 and Hsp90 antibodies are from a rat source, rabbit anti-rat IgG antibody was added after the first incubation, and the incubation was extended for another 1 hour at 4° C. before collection with protein A-Sepharose.Immunoprecipitates were loaded for SDS-PAGE and aliquoted for scintillation counting and plotting. Each value was presented as mean ±S.D. from three individual culture dishes.
HepG2 cells were preincubated for 4 hours in serum-free MEM and then radiolabeled with ^3 H-Leucine (150 μCi/ml) in a serum-free, leucine-free medium. […] Cell lysates containing equal amounts of trichloroacetic acid (TCA)-insoluble radioactivity were used for immunoprecipitations by incubating with individual monoclonal antibody (1 μg/ml) for 2.5 hours at 4° C. […]

HepG2 cells = experiment: Total incorporation of radiolabel (TCA cpm) as indicator of cell toxicity, HepG2; format: cell-based, human; conditions: ALLN 10 μg/ml, HepG2
Procedure: HepG2 cells were preincubated for 4 hours in serum-free MEM and then radiolabeled with ^3 H-Leucine (150 μCi/ml) in a serum-free, leucine-free medium. Preincubation and labeling media each contained either 1.5% bovine serum albumin (BSA) alone, or BSA plus ALLN (40 μg/ml except as otherwise indicated), or BSA plus other protease inhibitors at concentrations indicated in the figure legends. At the indicated times, cells were removed from the 37° C. incubator and placed on ice, washed with cold phosphate-buffer saline (PBS) twice and lysed with lysis buffer containing 1% Triton X-100 (TX100), 1% deoxycholic acid (DOC) and 0.1% SDS in PBS containing proteinase inhibitors: 2 mM phenylmethylsulfonyl fluoride (PMSF); 2 μg/ml ALLN; 2 μg/ml leupeptin; and 2 μg/ml aprotinin. After a 30 min. incubation with lysis buffer at 4° C., the lysates were centrifuged at 14,000 g in a microcentrifuge for 5 min., and the supernatants were adjusted to 1% SDS concentration and boiled for 5 min. to denature the proteins. 1% TX100 was then added to dilute the lysates to a final concentration of 0.1% SDS. Cell lysates containing equal amounts of trichloroacetic acid (TCA)-insoluble radioactivity were used for immunoprecipitations by incubating with individual monoclonal antibody (1 μg/ml) for 2.5 hours at 4° C. Protein-A Sepharose 4B was added afterwards and the lysates incubated for another 1.5 hours at 4° C. to collect the immunocomplexes. After washing four times with 1×NET buffer (containing 0.5% TX100, 0.1% SDS), the immunocomplexes were mixed with sample buffer and boiled for 5 min. Following centrifugation, the supernatants were aliquoted for scintillation counting and for 3-15% gradient polyacrymide gel electrophoresis (SDS-PAGE) . The gels were later subjected to fluorography. All values are presented as the mean ± S.D. from three individual experiments except as otherwise indicated.

[1] = tested on: human microvascular endothelial cell line; experiment: TCA-cpm measurement in human microvascular endothelial cell line; format: cell-based; conditions: ALLN 40 μg/ml, 4 hours, 30 min. labeling
hsp70 (hsp72) mRNA = experiment: Northern blot of hsp70 (hsp72) mRNA in HepG2 cells; format: cell-based, human
Procedure: HepG2 cells were treated with serum-free MEM containing either 1.5% BSA alone (Control, lane1), BSA plus 40 μg/ml of ALLN (ALLN, lane2), ALLN and 10 μg/ml of actinomycin D (A+AD, lane3), or ALLN and 50 μg/ml of cycloheximide (A+CXM, lane4). After 4 hours treatment at 37° C., cells were harvested. (B). HepG2 cells were treated with 40 μg/ml of ALLN in the serum-free MEM for up to 0 hour (lane1), 1 hour (lane2), 2 hours (lane3), and 3 hours (lane4) and then harvested without recovery. Or after treatment for 3 hours in the presence of ALLN as above, the ALLN containing medium were removed, cells were washed and fed fresh medium containing only BSA for recovery of up to 1 hour (lane5), 3 hours (lane6), 5 hours (lane7) or 7 hours (lane8). The total RNA was prepared, and equal amounts of the samples were loaded and run on a 1% formaldehyde-agarose gel, blotted onto a nylon membrane, and subsequently hybridized with specific synthetic oligonucleotide probes for hsp70 mRNA as described under Experimental Details. The position of 28S and 18S rRNA are shown for reference.
Total RNA was prepared using the procedure of Chomczynski and Sacchi (Chomczynski, et al., 1987) and a commercially prepared reagent, TRISOLV™ (Biotecx Laboratories Inc., Tex.) . Equal amounts of tRNA samples (10 μg) were size-fractionated on a 1% agarose-formaldehyde gel according to the methods described (Maniatis, et al., 1982) and transferred to a piece of QIAGEN plus nylon membrane. To determine loading and transfer efficiency, RNA was stained with ethidium bromide before and after transfer. The membrane was baked for 30 min. at 80° C. in vacuo (a vacuum) followed by UV cross-linking. It was then incubated for 4 hours at 65° C. in a prehybridization mixture containing 10% dextran sulfate, 1% SDS, 1M sodium chloride, 50 mM Tris-HCl (pH 7.5) and 100 μg/ml denatured salmon sperm DNA. Hybridization was carried out for 18 hours at 65° C. in the same buffer with a ^32 P-labeled (1×10^6 cpm/ml) 40-mer oligonucleotide probe to the untranslated 5' region of a human hsp70 gene (Oncogene Science). […] The membrane was then washed four times with 2×SSC, 0.1% SDS at room temperature, one time at 65° C. for 30 min., and one time at room temperature again for 5 min., and finally rinsed with 2×SSC at room temperature. This membrane was air dried and exposed to X-ray film at -80° C. for 48 hours.
Total RNA was isolated from HepG2 cells which had been incubated for 4 hours at 37° C. (FIG. 5A) with MEM containing BSA alone (Control, lane1), BSA plus 40 μg/ml of ALLN (ALLN, lane2), BSA plus ALLN and […] of actinomycin D (A+AD, lane3) or BSA plus ALLN and 50 μg/ml of cycloheximide (A+CXM, lane4). A radioprobe containing a unique sequence specific for the 5' untranslated region of hsp72 (inducible form) (Freeman et al., 1993) was used for Northern blot analysis.

cathepsin B = cathepsin B (Homo sapiens, UniProt P07858); conditions: Rock, et al., 1994; cited from earlier work

CCCC[C@@H](C=O)NC(=O)[C@H](CC(C)C)NC(=O)[C@H](CC(C)C)NC(C)=O [ALLN, N-acetyl-leucyl-leucyl-norleucinal] (Ac-Leu-Leu-[Nle]-aldehyde)
Effect on Hsp27 (Hsp27): no effects | Cell total incorporation of radiolabel (TCA cpm, an indicator of cell toxicity) (HepG2 cells): did not change significantly | TCA-cpm measurement [1]: no change | hsp70 (hsp72) mRNA after recovery (hsp70 (hsp72) mRNA; 3 hours ALLN 40 μg/ml, then 7 hours of recovery in ALLN-free medium): declined to background levels | Time of ALLN treatment to significant elevation of hsp70 (hsp72) mRNA (hsp70 (hsp72) mRNA; ALLN 40 μg/ml): ≤ 60 min | Amount of hsp70 (hsp72) mRNA (hsp70 (hsp72) mRNA; ALLN 40 μg/ml, 4 hours at 37° C.): increased dramatically | Activity against cathepsin B (cathepsin B): significant activities
